Test results from paper PMC5524647 (Nature Communications, 2017).
Entries after “also recorded” stand apart in the source; their conditions may differ.

Experiments:
mAb Pp-PS-W = assay type: binding, mouse
mAb 4C7 [1] = assay type: binding, mouse
[2] = test system: serum samples from culture-confirmed Thai melioidosis patients; assay type: binding, human
mAb 4C7 [3] = assay type: binding, mouse; conditions: for Kd: read-out: K D of mAb 4C7 binding
mAb 4C7 [4] = assay type: binding, mouse; remark: listed apart in the source
mAb 3D11 = assay type: binding, mouse
mAb 9C1-2 = assay type: binding, mouse

COC1C(OC(C)=O)C(C)OC(OC2C(O)C(CO)OC(OCCCCCN)C2O)C1OC(C)=O (stereo not shown) [disaccharide 7]
reactivity with mAb Pp-PS-W (ELISA) (mAb Pp-PS-W): reacted strongly | STD-NMR effects with mAb 4C7 (mAb 4C7 [1]): some STD enhancements were observed; also recorded: Low and not quantifiable STD effects | STD-NMR signals with mAb 4C7 (mAb 4C7 [1]): did not show any signals | reactivity of human immune serum samples with the coated antigen [2]: crossreact

CC(=O)OC1C(OC2C(O)C(CO)OC(OCCCCCNC(=O)CCCCCNC(=O)CCCCC3SCC4NC(=O)NC43)C2O)OC(C)C(O)C1OC1OC(CO)C(O)C(O)C1O (stereo not shown) [BIO-2]
K D of mAb 4C7 binding (mAb 4C7 [3]): no binding | binding of mAb 4C7 according to sensorgrams (mAb 4C7 [3]): did not interact

COC1C(O)C(C)OC(OC2C(O)C(CO)OC(OCCCCCN)C2O)C1OC(C)=O (stereo not shown) [disaccharide 6]
reactivity with mAb 4C7 (ELISA) (mAb 4C7 [4]): reacted strongly; also recorded: highest recognition | reactivity with mAb 3D11 (ELISA) (mAb 3D11): reacted strongly | reactivity with mAb 9C1-2 (ELISA) (mAb 9C1-2): reacted strongly | normalized STD effect, O-acetyl group (mAb 4C7 [1]): 97% | normalized STD effect, glucose proton H3 (mAb 4C7 [1]): ~60% | normalized STD effect, talose H1 (mAb 4C7 [1]): 96% | normalized STD effect, talose H4 (mAb 4C7 [1]): 88% | normalized STD effect, talose proton at position 2 (mAb 4C7 [1]): 100% | normalized STD intensities, glucose protons at positions 4, 5, and 6 (mAb 4C7 [1]): < 50%

COC1C(OC(C)=O)C(C)OC(OC2C(O)C(CO)OC(OCCCCCNC(=O)CCCCCNC(=O)CCCCC3SCC4NC(=O)NC43)C2O)C1OC(C)=O (stereo not shown) [BIO-7]
binding of mAb 4C7 according to sensorgrams (mAb 4C7 [3]): bound | Kd (mAb 4C7 [3]): 120 nM

COC1C(O)C(C)OC(OC2C(O)C(CO)OC(OCCCCCNC(=O)CCCCCNC(=O)CCCCC3SCC4NC(=O)NC43)C2O)C1OC(C)=O (stereo not shown) [BIO-6]
binding of mAb 4C7 according to sensorgrams (mAb 4C7 [3]): bound | Kd (mAb 4C7 [3]): 22 nM
